Reference: ChEMBL document CHEMBL1201862, “PubChem BioAssay data set” (2004)
The source made the active and inactive calls.

Assays:
[1] = off-target signal loss in HeLa-CEM21 co-culture – HeLa F-luc CTL cells, cherry-picked, counter-screen for HIV-1 Env fusion inhibitor project, dose response (AID 652040); assay type: functional, cell-based;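 note: potency for signal decrease marking cytotoxic or nonspecific inhibition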
[2] = ZM109 Env clade C HIV-1 fusion inhibitors, dose response, HeLa effector, CEM target cells, luciferase, cherry-pick (AID 652058); assay type: functional, cell-based
[3] = inhibitors of HIV Env-driven cell fusion, dose response, cherry-pick (AID 652057); assay type: functional, cell-based
[4] = inhibitors of clade B AD8 Env fusion, dose response, cell-based, cherry-pick (AID 652062); assay type: functional;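 note: luciferase signal from cell-cell fusion driven by HIV-1 clade B AD8 Env; potency is for inhibitors of fusion seen as a drop in luminescence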
[5] = biological target: T1, Polyadenylate-binding protein 1 (Homo sapiens, UniProt P11940); assay: PABP1 MLLE–PAM2 binding inhibitor potency, dose response, biochemical, fluorescence polarization, FITC-PAM2 peptide (AID 602259); assay type: functional; conditions: read-out: IC50_Mean
T1 sequence (P11940 whole entry): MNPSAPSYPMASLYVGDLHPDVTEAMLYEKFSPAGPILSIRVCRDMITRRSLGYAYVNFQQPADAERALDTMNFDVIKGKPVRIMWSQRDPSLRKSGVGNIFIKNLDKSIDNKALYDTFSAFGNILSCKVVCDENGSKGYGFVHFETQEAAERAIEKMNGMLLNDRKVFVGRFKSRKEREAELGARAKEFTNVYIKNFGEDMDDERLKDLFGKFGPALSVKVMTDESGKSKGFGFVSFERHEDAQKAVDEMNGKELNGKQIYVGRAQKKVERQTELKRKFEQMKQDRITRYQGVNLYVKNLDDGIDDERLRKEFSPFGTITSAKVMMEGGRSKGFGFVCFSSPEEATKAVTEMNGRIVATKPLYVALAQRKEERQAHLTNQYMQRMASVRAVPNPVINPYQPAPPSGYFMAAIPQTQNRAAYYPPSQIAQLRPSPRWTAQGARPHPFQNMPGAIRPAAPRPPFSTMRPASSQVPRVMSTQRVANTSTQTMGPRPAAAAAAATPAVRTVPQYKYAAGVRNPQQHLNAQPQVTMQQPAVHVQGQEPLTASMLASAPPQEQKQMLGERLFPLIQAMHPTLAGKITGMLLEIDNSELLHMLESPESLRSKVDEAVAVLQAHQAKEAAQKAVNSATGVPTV

[6] = biological target: T1, Polyadenylate-binding protein 1; assay: PABP1 MLLE–PAM2 interaction inhibitors, dose response, miRNA deadenylation inhibitor project, biochemical, fluorescence polarization, Cy5-PAM2 peptide, secondary (AID 602260); assay type: functional; conditions: read-out: IC50_Mean
[7] = intracellular Trypanosoma cruzi inhibitors in host cells – cell-based, plate reader, cherry-pick samples, set 3, dose response (AID 651818); assay type: functional;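 note: compounds incubated with infected cells for about four days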
[8] = biological target: T2, Fatty acid synthase (Homo sapiens, UniProt P49327); assay: FAS thioesterase domain inhibitors, dose response, biochemical, kinetic fluorescence intensity (AID 624326); assay type: functional;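 note: rate of fluorescence rise from hydrolysis of a fluorogenic O-methyl fluorescein ester substrate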
T2 sequence (P49327 whole entry, the tested form may be a part): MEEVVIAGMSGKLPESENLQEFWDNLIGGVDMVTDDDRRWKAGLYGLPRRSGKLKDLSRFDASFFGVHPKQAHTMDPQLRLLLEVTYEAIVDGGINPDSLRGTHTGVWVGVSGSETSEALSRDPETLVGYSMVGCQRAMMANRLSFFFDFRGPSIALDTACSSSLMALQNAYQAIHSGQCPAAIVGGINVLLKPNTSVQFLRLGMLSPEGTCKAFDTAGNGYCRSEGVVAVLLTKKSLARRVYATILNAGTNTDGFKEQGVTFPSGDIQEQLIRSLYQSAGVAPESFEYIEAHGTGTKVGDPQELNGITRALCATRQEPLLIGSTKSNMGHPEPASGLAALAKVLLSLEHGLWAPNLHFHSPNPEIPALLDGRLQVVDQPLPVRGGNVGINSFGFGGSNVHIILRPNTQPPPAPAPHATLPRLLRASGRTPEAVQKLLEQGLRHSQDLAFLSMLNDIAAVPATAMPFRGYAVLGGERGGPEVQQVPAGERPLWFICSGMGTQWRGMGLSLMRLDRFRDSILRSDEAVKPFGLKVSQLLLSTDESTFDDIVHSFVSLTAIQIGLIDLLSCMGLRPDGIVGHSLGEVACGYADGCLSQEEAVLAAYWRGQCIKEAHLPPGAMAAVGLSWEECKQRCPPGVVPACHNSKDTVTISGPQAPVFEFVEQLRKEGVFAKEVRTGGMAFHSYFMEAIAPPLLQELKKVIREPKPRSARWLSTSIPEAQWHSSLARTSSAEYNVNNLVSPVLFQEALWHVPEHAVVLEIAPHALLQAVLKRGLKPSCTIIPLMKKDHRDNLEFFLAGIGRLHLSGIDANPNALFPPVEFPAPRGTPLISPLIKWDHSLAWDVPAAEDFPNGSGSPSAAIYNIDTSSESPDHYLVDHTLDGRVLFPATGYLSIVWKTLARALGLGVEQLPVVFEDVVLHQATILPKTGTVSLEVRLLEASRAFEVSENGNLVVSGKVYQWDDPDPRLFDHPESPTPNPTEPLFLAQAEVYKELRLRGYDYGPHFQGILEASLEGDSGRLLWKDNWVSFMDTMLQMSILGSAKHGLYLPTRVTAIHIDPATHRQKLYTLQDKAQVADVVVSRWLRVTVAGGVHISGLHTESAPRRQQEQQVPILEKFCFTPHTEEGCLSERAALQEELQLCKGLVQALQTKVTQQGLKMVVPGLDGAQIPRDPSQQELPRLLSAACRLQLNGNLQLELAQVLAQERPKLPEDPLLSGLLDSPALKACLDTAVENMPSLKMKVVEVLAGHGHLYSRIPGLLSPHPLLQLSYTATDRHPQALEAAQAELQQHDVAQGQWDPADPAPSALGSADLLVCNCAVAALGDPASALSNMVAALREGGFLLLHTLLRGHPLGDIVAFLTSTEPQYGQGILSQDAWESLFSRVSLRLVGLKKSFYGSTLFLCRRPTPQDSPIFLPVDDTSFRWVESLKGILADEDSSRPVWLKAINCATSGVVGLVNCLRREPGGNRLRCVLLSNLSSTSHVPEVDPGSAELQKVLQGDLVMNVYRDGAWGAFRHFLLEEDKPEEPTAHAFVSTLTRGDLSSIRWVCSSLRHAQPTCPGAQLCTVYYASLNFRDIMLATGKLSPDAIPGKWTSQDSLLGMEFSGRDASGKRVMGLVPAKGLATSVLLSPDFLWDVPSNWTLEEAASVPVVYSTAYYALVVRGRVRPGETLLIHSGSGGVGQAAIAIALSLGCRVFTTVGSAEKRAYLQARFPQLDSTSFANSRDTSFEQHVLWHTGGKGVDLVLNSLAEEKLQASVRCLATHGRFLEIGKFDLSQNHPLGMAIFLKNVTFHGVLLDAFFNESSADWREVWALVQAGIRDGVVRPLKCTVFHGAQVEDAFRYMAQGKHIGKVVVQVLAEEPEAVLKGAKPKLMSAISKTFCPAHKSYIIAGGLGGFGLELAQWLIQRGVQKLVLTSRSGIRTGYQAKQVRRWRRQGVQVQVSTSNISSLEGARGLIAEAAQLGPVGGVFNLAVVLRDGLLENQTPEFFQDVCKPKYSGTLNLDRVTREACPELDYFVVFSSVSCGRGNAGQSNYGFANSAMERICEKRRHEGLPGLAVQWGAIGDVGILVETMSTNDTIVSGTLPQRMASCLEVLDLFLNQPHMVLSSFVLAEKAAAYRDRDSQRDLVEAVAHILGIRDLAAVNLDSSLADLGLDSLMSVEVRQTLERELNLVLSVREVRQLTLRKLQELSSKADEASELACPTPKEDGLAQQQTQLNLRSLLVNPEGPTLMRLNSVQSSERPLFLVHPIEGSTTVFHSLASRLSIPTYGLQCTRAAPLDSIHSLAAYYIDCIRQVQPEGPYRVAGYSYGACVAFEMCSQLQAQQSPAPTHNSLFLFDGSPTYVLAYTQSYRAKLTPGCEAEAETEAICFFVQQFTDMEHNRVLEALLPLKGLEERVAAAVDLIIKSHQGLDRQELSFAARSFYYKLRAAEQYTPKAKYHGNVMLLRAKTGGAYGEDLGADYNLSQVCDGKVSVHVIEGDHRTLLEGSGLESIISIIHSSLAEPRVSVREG

[9] = biological target: T2, Fatty acid synthase; assay: FAS thioesterase domain inhibitors, dose response, biochemical, endpoint fluorescence intensity, uHTS hits (AID 624327); assay type: functional;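 note: fluorescence from hydrolysis of an O-methyl fluorescein acyl ester substrate by the enzyme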
[10] = biological target: Cytochrome P450 2C19 (Homo sapiens, UniProt P33261); assay: Cytochrome panel assay with activity outcomes. Panel member name: p450-cyp2c19 Compounds with AC50 equal or less than 10 uM are considered active; assay type: functional; conditions: read-out: AC50
Sequence of Cytochrome P450 2C19 (P33261 whole entry): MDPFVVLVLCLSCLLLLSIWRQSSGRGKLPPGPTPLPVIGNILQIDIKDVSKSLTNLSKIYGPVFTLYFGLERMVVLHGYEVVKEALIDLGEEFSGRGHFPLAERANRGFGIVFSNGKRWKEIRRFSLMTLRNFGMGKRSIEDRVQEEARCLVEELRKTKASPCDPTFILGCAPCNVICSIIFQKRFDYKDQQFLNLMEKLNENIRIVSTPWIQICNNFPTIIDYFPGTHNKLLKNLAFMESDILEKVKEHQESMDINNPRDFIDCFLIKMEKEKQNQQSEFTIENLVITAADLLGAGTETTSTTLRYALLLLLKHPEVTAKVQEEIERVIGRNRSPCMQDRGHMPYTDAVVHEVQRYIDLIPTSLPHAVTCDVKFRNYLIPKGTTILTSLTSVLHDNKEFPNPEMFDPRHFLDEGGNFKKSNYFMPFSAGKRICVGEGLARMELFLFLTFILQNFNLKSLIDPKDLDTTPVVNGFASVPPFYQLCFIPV

[11] = biological target: Cytochrome P450 2C9 (Homo sapiens, UniProt P11712)
Sequence of Cytochrome P450 2C9 (P11712 whole entry): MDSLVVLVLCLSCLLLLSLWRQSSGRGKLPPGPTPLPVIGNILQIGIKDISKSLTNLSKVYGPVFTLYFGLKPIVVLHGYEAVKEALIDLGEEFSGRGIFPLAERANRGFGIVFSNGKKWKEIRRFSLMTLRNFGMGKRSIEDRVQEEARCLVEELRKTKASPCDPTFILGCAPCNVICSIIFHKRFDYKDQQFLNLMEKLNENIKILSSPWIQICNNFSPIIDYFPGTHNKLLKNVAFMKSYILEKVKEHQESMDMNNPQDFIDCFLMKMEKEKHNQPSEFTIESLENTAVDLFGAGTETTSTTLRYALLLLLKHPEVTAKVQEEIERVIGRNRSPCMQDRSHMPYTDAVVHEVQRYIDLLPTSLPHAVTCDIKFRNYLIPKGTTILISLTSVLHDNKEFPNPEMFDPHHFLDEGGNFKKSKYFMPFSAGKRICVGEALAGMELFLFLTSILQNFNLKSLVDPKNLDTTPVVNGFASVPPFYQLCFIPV

[12] = cells; assay type: functional, cell-based
[13] = cells; assay type: functional, cell-based; remark: listed apart in the source
[14] = cells; assay type: functional
[15] = C. albicans growth with fluconazole, confirmation, fluorescence, retest (AID 2467); assay type: functional, cell-based
[16] = NIH-3T3 fibroblast cytotoxicity, dose response, cytotoxicity control, cell-based, fluorescence, Alamar Blue, secondary assay (AID 2327); assay type: functional;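 note: NIH-3T3 mouse fibroblasts cultured with fluconazole at 8 µg/mL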
[17] = tested on: Streptococcus sp. 'group A'; assay: growth inhibition of control SK(-) GAS strain, dose response, counter-screen for streptokinase expression inhibitor project, luminescence, kanamycin, BacTiterGlo, confirmation (AID 1900); assay type: functional, organism-based
[18] = biological target: T3, Streptokinase A (Streptococcus pyogenes serotype M1, UniProt P10520); assay: S. pyogenes streptokinase expression inhibitors, potency, dose response, plasminogen activation absorbance, OD405 (AID 1914); assay type: functional, Streptococcus pyogenes M1 GAS;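 note: secreted streptokinase activity via plasminogen activation per viability signal from cell pellet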
T3 sequence (P10520 whole entry): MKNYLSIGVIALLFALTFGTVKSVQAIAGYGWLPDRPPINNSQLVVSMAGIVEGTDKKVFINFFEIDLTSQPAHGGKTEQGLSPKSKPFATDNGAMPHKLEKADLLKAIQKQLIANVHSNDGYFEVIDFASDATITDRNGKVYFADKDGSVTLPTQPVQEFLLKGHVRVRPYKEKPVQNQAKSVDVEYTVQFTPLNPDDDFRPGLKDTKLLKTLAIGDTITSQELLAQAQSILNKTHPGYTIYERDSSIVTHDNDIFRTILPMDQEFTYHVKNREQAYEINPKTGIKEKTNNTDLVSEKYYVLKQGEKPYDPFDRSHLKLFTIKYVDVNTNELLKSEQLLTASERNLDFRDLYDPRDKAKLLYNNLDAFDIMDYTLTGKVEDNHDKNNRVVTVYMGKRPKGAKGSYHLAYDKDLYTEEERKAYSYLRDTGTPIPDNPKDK

[19] = tested on: Streptococcus; assay: Group A Streptococcus viability loss, dose response, counter-screen for streptokinase expression inhibitor project, luminescence, BacTiterGlo (AID 1915); assay type: functional, organism-based;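 note: potency for reduction of bacterial viability or growth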
[20] = inhibitors of intracellular T. cruzi replication, confirmation, NIH3T3 host cells, beta-gal luminescence (AID 2044); assay type: functional, cell-based;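 note: intracellular parasites grown in NIH/3T3 mouse fibroblasts as host cells; luminescent beta-galactosidase reporter signal from transgenic T. cruzi replicating inside host cells; inhibitors lower the luminescence signal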
[21] = cytotoxicity toward NIH3T3 fibroblasts, dose response, counter-screen, cell-based, ATP luminescence, mouse fibroblasts (AID 2010); assay type: functional;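 note: cells exposed to compound for about 90 hours before reading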
[22] = Luminescence Cell-Based Dose Retest to Confirm Inhibitors of Cancer Stem Cells. [Related pubchem assays (depositor defined):AID2717, AID2721]; assay type: functional; conditions: Homo sapiens
[23] = tested on: INS1; assay: beta cell apoptosis inhibitors, cytokine rescue, dose response, luminescence, retest (AID 449756); assay type: functional, cell-based; conditions: Rattus norvegicus;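 note: cell death triggered by IL-1 beta plus TNF-alpha plus IFN-gamma mixture; protective hits raise ATP signal compared with cytokine alone wells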
[24] = biological target: Heat shock protein HSP 90-alpha (Homo sapiens, UniProt P07900); assay type: functional, organism-based
[25] = inhibitors of firefly luciferase expression or activity, dose response, H4 neuroglioma cells, luminescence (AID 1990); assay type: functional, cell-based
[26] = Luminescence Cell-Based Dose Response HTS to Identify Inhibitors of 5'UTR Stem-Loop Driven Prion Protein mRNA Translation in H4 Neuroglioblastoma Cells. [Related pubchem assays: 1827 (Project Summary), 1813 (Primary HTS)]; assay type: functional
[27] = inhibitors of SNCA 5'UTR-driven reporter translation, confirmation, H4 neuroglioma cells, luminescence (AID 1988); assay type: functional, cell-based

COc1ccc(Cn2nnnc2C(c2cc3cc(C)cc(C)c3nc2O)N2CCOCC2)cc1 (stereo not given)
AC50 [1]: 4.7 µM (active)
AC50 [2]: 4.35 µM (active)
AC50 [3]: 3.39 µM (active)
AC50 [4]: 5.51 µM (active)

N=C(N)SCP(=O)(c1ccccc1)c1ccccc1
IC50 [5]: > 66 µM (inactive)
IC50 [6]: > 66 µM (inactive)

CC(NC(=O)CSC1=NCCS1)c1ccccc1 (stereo not given)
IC50 [5]: > 66 µM (inactive)
IC50 [6]: > 66 µM (inactive)

COc1ccc(NC(=O)Nc2cccc3c2O[C@@H](CN(C)Cc2ccc(C(=O)Nc4ccccc4N)cc2)[C@H](C)CN([C@H](C)CO)C3=O)cc1
AC50 [7]: 2.41 µM (active)

N#Cc1cc(-c2ccccc2)cn(Cc2c(Cl)cccc2Cl)c1=O
IC50 [8]: 8.23 µM (active)
IC50 [9]: 7.42 µM (active)

O=C(CSc1nc(O)c(Cc2ccccc2)c(=O)[nH]1)Nc1ccccc1
IC50 [5]: > 66 µM (inactive)
IC50 [6]: > 66 µM (inactive)

O=C(CN1CCN(c2ccccc2)CC1)Nc1cccc([N+](=O)[O-])c1
IC50 [8]: 10.7 µM (active)
IC50 [9]: 9.24 µM (active)

Cc1ccc(S(=O)(=O)NCC(=O)OCC(=O)NCc2ccc3c(c2)OCO3)cc1
AC50 [3]: 24 µM (active)
AC50 [4]: 5.22 µM (active)

COCCNC(=O)c1sc2nc(-c3ccccc3)cn2c1C
AC50 [10]: 20 µM (inconclusive)
AC50 [11]: 28.2 µM (inconclusive)
EC50 [12]: > 350 µM (not active)
EC50 [13]: > 350 µM (not active)

Cc1noc(C)c1S(=O)(=O)Nc1ccc2c(c1)C(=O)N([C@H](C)CO)C[C@H](C)[C@H](CN(C)Cc1ccc(C(=O)Nc3ccccc3N)cc1)O2
AC50 [7]: 3.11 µM (active)

O=C(COC(=O)CCc1c[nH]c2ccccc12)Nc1cc([N+](=O)[O-])ccc1Cl
IC50 [8]: 10.7 µM (active)
IC50 [9]: 15.2 µM (active)
IC50 [14]: 4.54 µM (active)

CCOC(=O)c1sc(N2C(=O)C(O)=C(C(=O)c3ccco3)C2c2cccc(Cl)c2)nc1C (stereo not given)
EC50 [15]: 1.41 µM (active)
EC50 [16]: 30.5 µM (active)
EC50 [17]: 7.41 µM (active)
EC50 [18]: > 150 µM (not active)
EC50 [19]: 8.62 µM (active)

CC(OC(=O)CSc1ccc([N+](=O)[O-])cc1)C(=O)NC1CC1 (stereo not given)
IC50 [5]: > 66 µM (inactive)
IC50 [6]: > 66 µM (inactive)

Cc1cc(C)cc(N2C(=O)CC(Sc3ccccc3C(=O)O)C2=O)c1 (stereo not given)
IC50 [5]: > 66 µM (inactive)
IC50 [6]: > 66 µM (inactive)

CC(C)c1ccc(NC(=O)Cc2cn(C)c3ccccc23)cc1
EC50 [15]: > 38 µM (not active)
EC50 [16]: > 150 µM (inactive)

Cc1c(Br)c([N+](=O)[O-])nn1CC(=O)Nc1ccc(Cc2ccncc2)cc1
IC50 [8]: 8.12 µM (active)
IC50 [9]: 9.53 µM (active)

O=C(N/N=C/C(Br)=C\c1ccccc1)c1ccco1
EC50 [12]: > 350 µM (not active)
EC50 [13]: 13.8 µM (active)

O=C(NC(=S)Nc1ccc(Oc2ccccc2)cc1)c1ccc(Cl)cc1
EC50 [20]: 2.34 µM (active)
IC50 [5]: > 66 µM (inactive)
EC50 [21]: > 60 µM (not active)
IC50 [6]: > 66 µM (inactive)

O=C(CNC(=O)C(c1ccccc1)c1ccccc1)N/N=C/c1ccc(O)cc1O
AC50 [22]: 2.59 µM (active)
EC50 [12]: 17.5 µM (active)
EC50 [13]: > 350 µM (not active)

CC(C)(C)c1ccc(-n2ncc3c2CCCC3NC(=O)CN2CCCC2=O)cc1 (stereo not given)
AC50 [1]: > 32 µM (inactive)

CC[C@@]12C(=O)N(c3ccc(C)cc3)C(=O)N1[C@H](c1ccc(OC)cc1)[C@@H]1C(=O)N(C(C)(C)C)C(=O)[C@@H]12
AC50 [1]: 4.94 µM (active)
AC50 [2]: 2.86 µM (active)
AC50 [3]: 2.37 µM (active)
AC50 [4]: 3.09 µM (active)

C[C@@H]1CN([C@H](C)CO)C(=O)c2cc(NS(=O)(=O)c3ccc(Cl)cc3)ccc2O[C@@H]1CN(C)Cc1ccc(Cl)c(Cl)c1
AC50 [7]: 4.7 µM (active)

O=C(Nc1cccc(C(F)(F)F)c1)Oc1ccc(Cl)c2cccnc12
AC50 [23]: 7.15 µM (active)
AC50 [24]: 3.86 µM (active)
EC50 [17]: 2.54 µM (active)
EC50 [19]: 4.98 µM (active)

O=[N+]([O-])c1cccc(NC(=S)N2CCc3ccccc3C2)c1
IC50 [8]: 10.6 µM (active)
IC50 [9]: 16.5 µM (active)

C[C@H](CO)N1C[C@H](C)[C@H](CN(C)Cc2ccc3c(c2)OCO3)Oc2ccc(NC(=O)Nc3ccccc3)cc2C1=O
AC50 [7]: 8.77 µM (active)

O=C(c1ccc(Cl)c([N+](=O)[O-])c1)N1CCN(S(=O)(=O)c2ccc(Cl)cc2)CC1
IC50 [8]: 16.2 µM (active)
IC50 [9]: 14.2 µM (active)

Cc1ccc(CNC(=O)CSCc2cccc(F)c2)cc1
EC50 [15]: > 38 µM (not active)
EC50 [16]: > 150 µM (inactive)

CCN(CC)S(=O)(=O)c1ccc(N2CCOCC2)c(NC(=O)c2cccc3ccccc23)c1
EC50 [12]: > 350 µM (not active)
EC50 [13]: > 350 µM (not active)

O=C(COc1ccccc1)Nc1nc(-c2ccncc2)cs1
IC50 [5]: > 66 µM (inactive)
IC50 [6]: > 66 µM (inactive)

O=C(O)c1cccc2c1Cc1cc([N+](=O)[O-])ccc1-2
AC50 [24]: 0.357 µM (active)

O=C(CCNC(=O)c1ccc([N+](=O)[O-])cc1)NCCc1ccc(Cl)cc1
IC50 [8]: 7.38 µM (active)
IC50 [9]: 8.77 µM (active)

C[C@H](CO)N1C[C@H](C)[C@@H](CN(C)CC2CCCCC2)Oc2c(NS(=O)(=O)c3cccs3)cccc2C1=O
AC50 [7]: 19.7 µM (active)

COc1ccc(NC(=O)c2cccc(NC(=O)c3ccco3)c2)c(OC)c1
EC50 [12]: > 350 µM (not active)
EC50 [13]: > 350 µM (not active)

O=C(Cc1ccc([N+](=O)[O-])cc1)NNC(=O)c1ccc2c(c1)OCO2
EC50 [15]: > 38 µM (not active)
EC50 [16]: > 150 µM (inactive)

Cc1ccc(S(=O)(=O)N(C)C[C@H]2Oc3cc(-c4cccc(F)c4)ccc3S(=O)(=O)N([C@@H](C)CO)C[C@H]2C)cc1
AC50 [3]: 1.47 µM (active)
AC50 [4]: 6.67 µM (active)

C[C@@H]1CN([C@@H](C)CO)C(=O)Cc2cc(NC(=O)Nc3ccc(C(F)(F)F)cc3)ccc2O[C@@H]1CN(C)CC1CCCCC1
AC50 [7]: 1.93 µM (active)

COc1ccc(NC(=O)Nc2ccc3c(c2)C(=O)N([C@H](C)CO)C[C@H](C)[C@H](CN(C)Cc2ccc(-c4ccccc4)cc2)O3)cc1
AC50 [7]: 4.77 µM (active)

Cc1cc(C)nc(N/N=C/C2=C(O)CC(c3ccccc3)CC2=O)n1 (stereo not given)
EC50 [25]: 14.7 µM (active)
EC50 [12]: > 350 µM (not active)
EC50 [26]: 14.5 µM (active)
EC50 [13]: > 350 µM (not active)
EC50 [27]: 11.3 µM (active)

Nc1c(C(=O)Nc2ccc3c(c2)OCCO3)nnn1Cc1ccccc1Cl
AC50 [23]: 0.653 µM (active)
AC50 [24]: 10.3 µM (active)

C[C@@H]1CN([C@H](C)CO)C(=O)Cc2cc(NC(=O)Cc3cn(C)c4ccccc34)ccc2O[C@H]1CN(C)Cc1ccc(Oc2ccccc2)cc1
AC50 [7]: 3.74 µM (active)

Cn1c(-c2ccccc2)cnc1NCc1cccc([N+](=O)[O-])c1
IC50 [8]: 8.79 µM (active)
IC50 [9]: 6.81 µM (active)

COc1ccc(CCC(C)NCc2cc(OC)cc(OC)c2)cc1 (stereo not given)
AC50 [1]: 7.92 µM (active)
AC50 [2]: 9.46 µM (active)
AC50 [3]: 6.55 µM (active)
AC50 [4]: 14.1 µM (active)

C[C@H](CO)N1C[C@H](C)[C@H](CN(C)Cc2ccc(C(=O)Nc3ccccc3N)cc2)Oc2ccc(NC(=O)Nc3ccccc3)cc2CC1=O
AC50 [7]: 2.98 µM (active)
